Experiment [1] deals with T1, Cannabinoid receptor 1 (Homo sapiens, UniProt P21554). The experiment in a line: Allosteric modulator activity at human CB1 receptor expressed in HEK293 cell membranes assessed as suppression of 100 nM CP55,940-induced [35S]GTPgammaS binding incubated for 60 mins by scintillation counting method.
In experiment [2] the target is T1, Cannabinoid receptor 1. The experiment in a line: Allosteric modulator activity at human CB1 receptor expressed in CHO-RD-HGA16 cells co-expressing Galpha16 assessed as suppression of 100 nM CP55,940-induced calcium mobilization pre-incubated for 15 mins by Calcium 5 dye based FLIPR assay.

The values that follow come from BindingDB's records for doi:10.1021/acs.jmedchem.9b01161 (Research Triangle Institute, 2019).

T1 sequence (P21554 whole entry): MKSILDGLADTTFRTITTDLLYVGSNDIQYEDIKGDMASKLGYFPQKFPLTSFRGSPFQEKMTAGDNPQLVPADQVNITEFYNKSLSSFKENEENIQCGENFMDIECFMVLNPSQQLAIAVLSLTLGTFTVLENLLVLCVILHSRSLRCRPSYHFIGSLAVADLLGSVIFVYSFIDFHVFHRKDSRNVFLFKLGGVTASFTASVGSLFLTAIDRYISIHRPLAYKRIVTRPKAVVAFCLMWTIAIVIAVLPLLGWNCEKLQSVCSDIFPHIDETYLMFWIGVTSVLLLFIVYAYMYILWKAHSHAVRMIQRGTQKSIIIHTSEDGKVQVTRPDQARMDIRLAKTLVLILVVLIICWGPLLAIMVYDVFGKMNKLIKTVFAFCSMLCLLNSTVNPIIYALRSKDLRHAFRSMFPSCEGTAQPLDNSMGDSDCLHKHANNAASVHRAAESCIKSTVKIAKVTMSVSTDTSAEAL

Turning to `O=C(Nc1ccc(Cl)cc1)N[C@H]1C[C@H]1c1ccccc1`, the IC50 in experiment [1] and in experiment [2] was > 10 µM in each case. With `COc1ccc(-c2cccc(N3CCCC3)n2)cc1NC(=O)Nc1ccc(Cl)cc1`, the IC50 in experiment [1] is > 10 µM.
